PubChem BioAssay (NCI)
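Method: 48-hour compound exposure of cells in 96-well plates, five concentrations, linear interpolation of endpoints. The concentration for 50% growth inhibition is given as GI50. The concentration for full growth arrest is given as TGI.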

Columns and labels:
Assay in all cases: NCI anticancer screen, dose series, 48 h
[1] = system: CAKI-1 renal
[2] = system: DU-145 prostate
[3] = system: HCT-15 colon
[4] = system: MCF7 breast
[5] = system: NCI-H226 lung
[6] = system: NCI-H23 lung
[7] = system: NCI-H460 lung
[8] = system: RXF 393 renal
[9] = system: SK-MEL-2 melanoma
[10] = system: SNB-75 CNS

| Compound | TGI [1] | TGI [2] | TGI [3] | TGI [4] | TGI [5] | TGI [6] | TGI [7] | TGI [8] | TGI [9] | TGI [10] | GI50 [1] | GI50 [2] | GI50 [4] | GI50 [5] | GI50 [6] | GI50 [7] | GI50 [8] | GI50 [9] | GI50 [10] | GI50 [3] |
| --- | --- | --- | --- | --- | --- | --- | --- | --- | --- | --- | --- | --- | --- | --- | --- | --- | --- | --- | --- | --- |
| O=C1C[C@H](CCC(=O)OCc2ccccc2)NC(=O)C[C@H](CCC(=O)OCc2ccccc2)NC(=O)C[C@H](CCC(=O)OCc2ccccc2)N1 | > 100 µM | > 100 µM | > 100 µM | > 100 µM | > 100 µM | > 100 µM | > 100 µM | 8.23 µM | > 100 µM | 6.73 µM | – | – | – | – | – | – | – | – | – | – |
| COc1cc2c(cc1OCCCN1CCN(c3ncnc4ccccc34)CC1)N=CC1CCCN1C2=O (centres undefined) | 0.0574 µM | 0.311 µM | – | 1.02 µM | 0.247 µM | 0.0819 µM | 0.298 µM | 0.0394 µM | 0.512 µM | 0.168 µM | 0.0191 µM | 0.0278 µM | 0.0189 µM | 0.0348 µM | 0.0268 µM | 0.0282 µM | 0.0205 µM | 0.0646 µM | 0.0357 µM | – |
| Fc1c(F)c(C(F)(F)F)c(F)c(F)c1N/N=C/c1cn(Cc2ccccc2)c2ccccc12 | 54.3 µM | > 100 µM | > 100 µM | 69.5 µM | – | 79.9 µM | 27.9 µM | 41.5 µM | 55.7 µM | 62.4 µM | – | – | – | – | – | – | – | – | – | – |
| COc1ccc(C2C(C=O)C(N3CCN(C)CC3)=Nc3nc4ccccc4n32)cc1 (centres undefined) | 52.4 µM | 49.3 µM | 46.5 µM | 36.3 µM | 38.2 µM | 44.8 µM | 91.1 µM | 39.2 µM | 31.2 µM | 31.3 µM | – | – | – | – | – | – | – | – | – | – |
| O=S(O)c1cc(Cl)cc(Cl)c1OCc1ccccc1 | – | – | – | – | – | > 100 µM | > 100 µM | > 100 µM | > 100 µM | > 100 µM | – | – | – | – | – | – | – | – | – | – |
| CNC(=O)Nc1ccccc1 | > 100 µM | > 100 µM | > 100 µM | > 100 µM | > 100 µM | > 100 µM | > 100 µM | > 100 µM | > 100 µM | > 100 µM | – | – | – | – | – | – | – | – | – | – |
| O=C(COc1ccc(Cl)cc1Cl)N/N=C/C=C/c1ccc([N+](=O)[O-])o1 | > 100 µM | – | > 100 µM | > 100 µM | > 100 µM | 39 µM | > 100 µM | 59.8 µM | > 100 µM | 59.2 µM | – | – | – | – | – | – | – | – | – | – |
| C[N+](C)(CCO)CCN1c2ccccc2Sc2ccccc21 | > 10 µM | > 10 µM | > 10 µM | > 10 µM | > 10 µM | > 10 µM | > 10 µM | > 10 µM | > 10 µM | > 10 µM | – | – | – | – | – | – | – | – | – | – |
| COc1ccc2nc3ccccc3c(NCc3ccc(C)cc3)c2c1 | 2.98 µM | 7.68 µM | 4.76 µM | – | 5.12 µM | 4.26 µM | 4.15 µM | 2.83 µM | 3.68 µM | 2.85 µM | 1.59 µM | 2.64 µM | – | 1.97 µM | 1.68 µM | 1.97 µM | 1.32 µM | 1.85 µM | 1.49 µM | 1.73 µM |
